Source: patent US11807620B2, “Quinazolinone compounds and related compounds” (PLEXIUM, INC., priority 2020, dated 2023)

Columns and labels:
cereblon (NanoLuc-CRBN) = molecular target: T1, cereblon (NanoLuc-CRBN) (Homo sapiens, UniProt Q96SW2); experiment: NanoBRET CRBN Cellular Target Engagement Assay; type: binding; settings: compound tested at 10 μM, HEK293T cells transfected with NanoLuc-CRBN, 2 hr incubation; for remaining activity at 10 µM: lower = higher affinity, read-out: % tracer bound At the end of assay; for inhibition at 10 µM: read-out: % tracer removed From CBLN
T1 construct: host or cells: HEK293T
T1 sequence (Q96SW2 whole entry): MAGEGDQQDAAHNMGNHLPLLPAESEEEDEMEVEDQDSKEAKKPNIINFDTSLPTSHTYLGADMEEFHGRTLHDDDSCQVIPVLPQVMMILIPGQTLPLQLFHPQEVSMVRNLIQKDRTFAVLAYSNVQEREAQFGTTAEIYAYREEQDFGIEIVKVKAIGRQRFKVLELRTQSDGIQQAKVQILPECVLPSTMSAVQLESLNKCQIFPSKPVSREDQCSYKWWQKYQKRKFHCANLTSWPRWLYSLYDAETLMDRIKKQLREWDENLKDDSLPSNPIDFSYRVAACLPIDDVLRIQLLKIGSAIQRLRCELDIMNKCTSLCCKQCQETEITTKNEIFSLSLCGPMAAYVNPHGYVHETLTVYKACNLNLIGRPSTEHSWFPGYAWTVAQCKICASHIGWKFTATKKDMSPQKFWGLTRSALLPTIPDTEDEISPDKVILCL
Source text: The following example measures the extent to which a test compound of this invention binds to cereblon. In this example, a commercially available cereblon binding test kit (Promega Corporation, Madison, Wis., USA) was used but adapted to a 384 well format.
The kit comprises a tracer that binds to cereblon to form a tracer-cereblon complex. This complex is reversible. Upon addition of the test compound, competition between the tracer and the test compound for the binding site(s) on cereblon occurs. The extent of tracer release from cereblon correlates to the affinity of test compound to bind to cereblon. The higher the affinity, the more tracer is released from cereblon.
The assay is a homogenous cell-based assay that used bioluminescence resonance energy transfer (BRET) to measure cereblon target compound binding which causes loss of BRET. Lower BRET values correlate to higher loss of tracer bound to cereblon and, accordingly, higher the levels of target compound binding to cereblon.
The specifics of the assay include HEK293T cells were transfected with a NanoLuc-CRBN expression plasmid using Fugene as described. Approximately 24 hr later, transfected cells were washed with 1× Phosphate Buffered Saline (PBS) and harvested using trypsin. Cells were resuspended in Opti-MEM (available from Thermo Fisher Scientific) at a concentration of 2×10^5 cells/mL. A ratio of 1 part 100× Tracer to 4 parts NanoBRET Tracer Dilution Buffer was used to make a 20× Tracer stock. Next, 40 μl cells per well containing 1× tracer was dispensed into 384 well white tissue culture treated plates. Compounds were then dispensed using a D330e Digital Dispenser (Tecan Trading AG) and plates were allowed to incubate for 2 hr at 37° C., 5% CO2. Immediately prior to BRET measurements, a 3× Complete NanoBret Nano-Glo Substrate stock in Opti-MEM was prepared and 20 μl per well of substrate was subsequently added to the assay plates. Following a 2-3 minute incubation at room temperature, donor (450 nm) and acceptor (610 nm) emission values were read on a CLARIOStar multimode plate reader (BMG) in luminescence mode. Data were converted to milliBRET units by dividing acceptor emission values by donor emission and multiplying by 1000. […]

IKZF3 (Aiolos) = molecular target: T2, IKZF3 (Aiolos) (Homo sapiens, UniProt Q96SW2+Q9UKT9); experiment: Stable cell line fluorescent reporter degradation assay, IKZF3; type: cell-based; settings: HEK 293T IKZF3-mNeonGreen reporter cells, 24 hour incubation, calculated visually from the curves; for Dmax at 10 µM: 10 micromolar
T2 construct: mScarlet (C, cleaved yes); expressed in transfected cells
T2 sequence (Q9UKT9 whole entry): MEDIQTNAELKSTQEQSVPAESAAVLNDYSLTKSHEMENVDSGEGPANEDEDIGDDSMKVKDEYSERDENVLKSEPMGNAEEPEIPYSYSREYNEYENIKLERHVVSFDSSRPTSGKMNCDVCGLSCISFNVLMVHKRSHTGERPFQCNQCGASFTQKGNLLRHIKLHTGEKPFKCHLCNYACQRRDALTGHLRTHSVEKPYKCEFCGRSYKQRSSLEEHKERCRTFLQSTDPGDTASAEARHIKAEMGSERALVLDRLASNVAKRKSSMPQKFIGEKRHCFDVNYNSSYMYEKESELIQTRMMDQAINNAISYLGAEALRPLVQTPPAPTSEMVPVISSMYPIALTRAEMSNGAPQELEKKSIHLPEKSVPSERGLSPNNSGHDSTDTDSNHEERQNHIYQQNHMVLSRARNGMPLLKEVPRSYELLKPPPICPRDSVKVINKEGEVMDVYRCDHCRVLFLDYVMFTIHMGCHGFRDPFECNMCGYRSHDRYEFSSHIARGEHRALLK
T2 sequence (Q96SW2 whole entry): as the sequence (Q96SW2 whole entry) above
T2 sequence (Q16531 whole entry partner): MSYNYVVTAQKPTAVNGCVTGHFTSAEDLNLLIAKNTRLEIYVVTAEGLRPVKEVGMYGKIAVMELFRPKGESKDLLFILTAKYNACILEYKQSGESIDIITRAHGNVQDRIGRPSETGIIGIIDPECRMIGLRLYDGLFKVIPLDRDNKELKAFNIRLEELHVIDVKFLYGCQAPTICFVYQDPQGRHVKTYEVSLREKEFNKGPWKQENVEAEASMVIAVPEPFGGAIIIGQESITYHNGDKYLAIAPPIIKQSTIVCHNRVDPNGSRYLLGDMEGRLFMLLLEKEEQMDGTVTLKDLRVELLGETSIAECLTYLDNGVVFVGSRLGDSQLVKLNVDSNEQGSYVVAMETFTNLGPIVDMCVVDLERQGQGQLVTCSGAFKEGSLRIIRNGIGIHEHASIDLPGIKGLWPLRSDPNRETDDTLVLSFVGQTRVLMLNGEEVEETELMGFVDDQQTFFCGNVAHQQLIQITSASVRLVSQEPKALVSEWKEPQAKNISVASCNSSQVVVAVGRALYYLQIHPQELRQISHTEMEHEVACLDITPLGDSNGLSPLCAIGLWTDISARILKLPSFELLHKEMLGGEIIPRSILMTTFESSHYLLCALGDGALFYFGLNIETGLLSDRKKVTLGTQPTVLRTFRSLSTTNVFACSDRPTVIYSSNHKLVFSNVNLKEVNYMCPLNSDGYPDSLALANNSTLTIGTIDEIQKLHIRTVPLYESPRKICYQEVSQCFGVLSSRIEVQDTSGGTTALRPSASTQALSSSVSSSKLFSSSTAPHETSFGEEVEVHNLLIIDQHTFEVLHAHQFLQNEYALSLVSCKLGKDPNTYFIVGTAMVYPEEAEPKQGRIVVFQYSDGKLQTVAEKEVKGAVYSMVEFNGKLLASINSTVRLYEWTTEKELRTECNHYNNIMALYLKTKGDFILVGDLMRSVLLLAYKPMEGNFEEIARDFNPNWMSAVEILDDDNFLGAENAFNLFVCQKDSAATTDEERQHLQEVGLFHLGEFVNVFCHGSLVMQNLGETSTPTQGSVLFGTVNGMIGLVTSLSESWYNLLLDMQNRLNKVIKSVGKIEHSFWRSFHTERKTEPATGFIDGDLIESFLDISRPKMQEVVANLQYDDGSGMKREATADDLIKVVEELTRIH
Source text: (§1) Polycistronic plasmids were constructed for the mammalian expression of fluorescent reporter fusions of human transcription factors IKZF1 (Ikaros) and IKZF3 (Aiolos). The respective protein sequences had their C-terminal end joined to a GGGGS linker repeated three times followed by mNeonGreen, P2A sequence, and mScarlet. IKZF1 expression was driven by a CMV promoter while IKZF3 was EF1α promoter driven. The plasmids contained the HygR resistance gene for positive selection of cells with genomic integration of the reporter constructs. The plasmids were transfected using cationic lipid reagents into adherent HEK 293T cells and stable integrants were selected by treatment with 200 ug/mL hygromycin B. Clonal populations were obtained from the population of stable integrants either by limiting dilution or fluorescence activated cell sorting. The clonal stable cell lines were maintained under constant 200 ug/mL hygromycin B selection while being passaged for use in the degradation assays. The fluorescence intensity of the IKZF1/2/3-mNeonGreen (FITC channel) and mScarlet (PE channel) reporters were routinely analyzed by flow cytometry to confirm consistent expression levels between experiments.
(§2) Representative compounds were evaluated for their ability to degrade IKZF1 and IKZF3 in the following assay.
(§3) The IKZF1/IKZF3 degradation assays were carried out by harvesting the HEK 293T reporter cell lines and resuspending the cells in media formulated for reduced background fluorescence. The respective cell lines were seeded at a density of 4,000 cells/well into black-walled 384-well optical grade assay plates pre-coated by the manufacturer with PDL. The cells were incubated overnight to allow for attachment to the assay plate (37° C. with humidified air and 5% CO2 for all incubations). Dilutions of the compounds were prepared in dimethyl sulfoxide (DMSO) from 10 mM compound stock solutions in DMSO. The assay plates were treated with appropriate concentrations of the compounds by dispensing the DMSO dilutions in quadruplicate wells with an upper limit of 0.5% final DMSO.
(§4) After a 24 hour incubation with the compounds, the assay plates were imaged on an ImageXpress Pico microscopy system (cells maintained at 37° C. during imaging) to obtain the fluorescent readouts. The assay plates were imaged in the FITC and TRITC channels to obtain the mNeonGreen fluorescence intensity (reporter degradation data) and mScarlet fluorescence intensity (for cell segmentation), respectively. 293T-IKZF1 and 293T-IKZF3 reporter cell lines were imaged with exposures of 500 milliseconds (ms) for both FITC and TRITC channels. The resulting data was analyzed with Cell Reporter Xpress software using the 2-channel cell scoring analysis with a “percent positive” readout. The TRITC channel was selected for the “nuclei” segmentation with a threshold of 20 while the FITC channel was selected for the “Marker 1” segmentation and a threshold of 100 for the IKZF1 and IKZF3 reporter lines. The minimum segmentation width was set to 6 micrometers and the maximum segmentation width was set to 15 micrometers for all cell lines.
(§5) The percent degradation amounts were calculated visually from the curves generated at a concentration of 10 micromolar.

IKZF1 (Ikaros) = molecular target: T3, IKZF1 (Ikaros) (Homo sapiens, UniProt Q13422+Q96SW2); experiment: Stable cell line fluorescent reporter degradation assay, IKZF1; type: cell-based; settings: HEK 293T IKZF1-mNeonGreen reporter cells, 24 hour incubation, calculated visually from the curves; for Dmax at 10 µM: 10 micromolar
T3 construct: mScarlet (C, cleaved yes); expressed in transfected cells
T3 sequence (Q13422 whole entry): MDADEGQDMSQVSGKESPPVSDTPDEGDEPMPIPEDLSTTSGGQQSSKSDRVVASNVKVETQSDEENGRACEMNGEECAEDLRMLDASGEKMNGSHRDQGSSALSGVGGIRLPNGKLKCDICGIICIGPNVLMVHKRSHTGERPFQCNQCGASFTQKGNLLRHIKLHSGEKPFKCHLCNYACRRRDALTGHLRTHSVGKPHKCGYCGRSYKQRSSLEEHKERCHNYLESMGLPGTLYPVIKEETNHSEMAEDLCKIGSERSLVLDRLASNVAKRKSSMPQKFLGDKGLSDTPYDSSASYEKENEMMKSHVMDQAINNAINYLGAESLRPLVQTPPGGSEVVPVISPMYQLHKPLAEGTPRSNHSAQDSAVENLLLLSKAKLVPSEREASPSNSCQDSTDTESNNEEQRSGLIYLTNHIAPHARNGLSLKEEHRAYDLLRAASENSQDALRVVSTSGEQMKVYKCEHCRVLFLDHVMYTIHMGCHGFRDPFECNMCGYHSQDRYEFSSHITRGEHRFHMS
T3 sequence (Q96SW2 whole entry): as the sequence (Q96SW2 whole entry) above
T3 sequence (Q16531 whole entry partner): as the sequence (Q16531 whole entry partner) above
Source text: as §1, §2, §3, §4, §5

SMILES | remaining activity at 10 µM (cereblon (NanoLuc-CRBN)) [%] | inhibition at 10 µM (cereblon (NanoLuc-CRBN)) [%] | Dmax at 10 µM (IKZF3 (Aiolos); HEK-293T, 24 h) [%] | Dmax at 10 µM (IKZF1 (Ikaros); HEK-293T, 24 h) [%] | % Degradation IKZF3 @ 10 micromolar (IKZF3 (Aiolos)) [%] | % Degradation IKZF1 @ 10 micromolar (IKZF1 (Ikaros)) [%] | Dmax at 10 µM (IKZF3 (Aiolos)) [%] | Dmax at 10 µM (IKZF1 (Ikaros)) [%]
Cc1nc2cccc(NCc3ccc(CN4CCOCC4)cc3)c2c(=O)n1C1CCC(=O)NC1=O (centres unmarked) [compound 32, 3-(2-methyl-5-((4-(morpholinomethyl)benzyl)amino)-4-oxoquinazolin-3(4H)-yl)piperidine-2,6-dione] | – | – | – | – | – | – | 91.9 | 93.8
Cc1nc2cccc(NCc3cccc(CN4CCN(c5ccc(C#N)cc5F)CC4)c3)c2c(=O)n1C1CCC(=O)NC1=O (centres unmarked) [compound 33, 4-(4-(3-(((3-(2,6-dioxopiperidin-3-yl)-2-methyl-4-oxo-3,4-dihydroquinazolin-5-yl)amino)methyl)benzyl)piperazin-1-yl)-3-fluorobenzonitrile] | – | – | – | – | – | – | 87.4 | 95.5
O=C1CCC(n2nnc3cccc(NCc4ccc(CN5CCOCC5)cc4)c3c2=O)C(=O)N1 (centres unmarked) [compound 36, 3-(5-((4-(morpholinomethyl)benzyl)amino)-4-oxobenzo[d][1,2,3]triazin-3(4H)-yl)piperidine-2,6-dione] | – | – | 87.4 | 88.2 | – | – | – | –
Cc1nc2cccc(NCc3ccc(CN4CCN(c5ccc(C#N)cc5F)CC4)cc3)c2c(=O)n1C1CCC(=O)NC1=O (centres unmarked) [Example 34, 4-(4-(4-(((3-(2,6-dioxopiperidin-3-yl)-2-methyl-4-oxo-3,4-dihydroquinazolin-5-yl)amino)methyl)benzyl)piperazin-1-yl)-3-fluorobenzonitrile] | 27.4 | 72.6 | – | – | – | – | 93.2 | 93.1
Cc1cccc(CNc2cccc3nc(C)n(C4CCC(=O)NC4=O)c(=O)c23)c1 (centres unmarked) [Example 7, 3-(2-methyl-5-((3-methylbenzyl)amino)-4-oxoquinazolin-3(4H)-yl)piperidine-2,6-dione] | 22.9 | 77.1 | 94.3 | 76.8 | – | – | – | –
COc1ccc(CNc2cccc3nc(C)n(C4CCC(=O)NC4=O)c(=O)c23)cc1 (centres unmarked) [Example 1, 3-(5-((4-methoxybenzyl)amino)-2-methyl-4-oxoquinazolin-3(4H)-yl)piperidine-2,6-dione] | 47.3 | 52.7 | – | – | – | – | 91.1 | 89.1
Cc1nc2cccc(NCc3ccc(CN4CC(N5CCOCC5)C4)cc3F)c2c(=O)n1C1CCC(=O)NC1=O (centres unmarked) [compound 91, 3-(5-((2-fluoro-4-((3-morpholinoazetidin-1-yl)methyl)benzyl)amino)-2-methyl-4-oxoquinazolin-3(4H)-yl)piperidine-2,6-dione] | – | – | 96.3 | 97.1 | – | – | – | –

Now from value to molecule, other results behind:

remaining activity at 10 µM (cereblon (NanoLuc-CRBN)) [%] | inhibition at 10 µM (cereblon (NanoLuc-CRBN)) [%] | Dmax at 10 µM (IKZF3 (Aiolos); HEK-293T, 24 h) [%] | Dmax at 10 µM (IKZF1 (Ikaros); HEK-293T, 24 h) [%] | % Degradation IKZF3 @ 10 micromolar (IKZF3 (Aiolos)) [%] | % Degradation IKZF1 @ 10 micromolar (IKZF1 (Ikaros)) [%] | SMILES | Dmax at 10 µM (IKZF3 (Aiolos)) [%] | Dmax at 10 µM (IKZF1 (Ikaros)) [%]
23.8 | 76.2 | 93.6 | 89.7 | – | – | Cc1nc2cccc(NCc3cccc(F)c3)c2c(=O)n1C1CCC(=O)NC1=O (centres unmarked) [Example 5, 3-(5-((3-fluorobenzyl)amino)-2-methyl-4-oxoquinazolin-3(4H)-yl)piperidine-2,6-dione] | – | –
40.9 | 59.1 | 95.8 | 92.4 | – | – | Cc1nc2cccc(NCc3ccc(F)cc3)c2c(=O)n1C1CCC(=O)NC1=O (centres unmarked) [Example 4, 3-(5-((4-fluorobenzyl)amino)-2-methyl-4-oxoquinazolin-3(4H)-yl)piperidine-2,6-dione] | – | –
– | – | 92.4 | 78.4 | – | – | O=C1CCC(n2cnc3cccc(NCc4ccc(CN5CC(N6CCOCC6)C5)cc4F)c3c2=O)C(=O)N1 (centres unmarked) [compound 101, 3-(5-((2-fluoro-4-((3-morpholinoazetidin-1-yl)methyl)benzyl)amino)-4-oxoquinazolin-3(4H)-yl)piperidine-2,6-dione] | – | –
– | – | – | – | 92.6 | 92.6 | Cc1nc2cccc(NCc3ccc(CN4CC(N5CCOCC5)C4)cc3F)c2c(=O)n1C1CCC(=O)NC1=O (centres unmarked) [Example 96, 3-(5-((2-fluoro-4-((3-morpholinoazetidin-1-yl)methyl)benzyl)amino)-2-methyl-4-oxoquinazolin-3(4H)-yl)piperidine-2,6-dione] | – | –
